Tests used:
[1] = system: PBMC (polyclonal gluten-specific T cells) of paediatric and adult CD patients; assay: IFN-γ ELISpot of PBMC after 3 day oral wheat challenge (SFU, % of maximal peptide response, dominance scores, EC50; Examples 5-6); type: cell-based, human; conditions: for Dominance score 3-5yrs (n = 9): CD children 3-5yrs, n = 9, following wheat challenge; for Dominance score 3-5yrs (n = 9) / Dominance score 6-10yrs (n = 10) / Dominance score 11-18yrs (n = 11): mean percentage of maximal peptide response; for Dominance score 6-10yrs (n = 10): CD children 6-10yrs, n = 10, following wheat challenge; for Dominance score 11-18yrs (n = 11): CD children 11-18yrs, n = 11, following wheat challenge; for Dominance score Mean all ages: CD children, following wheat challenge (Table 9); for dominance hierarchy across all age groups: Example 6; for Dominance scores 3-5 yrs: children with celiac disease 3-5 yrs after wheat challenge (Table 14); for Dominance scores 6-10 yrs: children with celiac disease 6-10 yrs after wheat challenge (Table 14); for Dominance scores 11-18 yrs: children with celiac disease 11-18 yrs after wheat challenge (Table 14); for Dominance scores Mean all ages: mean of all subjects (Table 14); for IFN-γ ELISpot response: after oral wheat challenge
[2] = system: PBMC (polyclonal gluten-specific T cells) of paediatric and adult CD patients; conditions: corresponding adult data shown for comparison (14); cited from earlier work

LQPFPQPELPFPQP [Peptide W06]
Dominance score 3-5yrs (n = 9) [1]: 53.1 | Dominance score 6-10yrs (n = 10) [1]: 52.7 | Dominance score 11-18yrs (n = 11) [1]: 53.8 | Dominance score Mean all ages [1]: 53.2 | dominance hierarchy across all age groups [1]: most dominant four peptides | Dominance scores 3-5 yrs [1]: 58 | Dominance scores 6-10 yrs [1]: 53 | Dominance scores 11-18 yrs [1]: 54 | Dominance scores Mean all ages [1]: 54 | IFN-γ ELISpot response ([1]; patient A, 11-17 yrs, cut-off 10 SFU): 5 SFU | Significant response as percentage of maximal peptide SFU ([1]; patient D, max peptide 30.5 SFU): ′′′ (41-70% = ′′′) | IFN-γ ELISpot response ([1]; patient E, H, 11-17 yrs, cut-off 10 SFU): 103 SFU | Significant response as percentage of maximal peptide SFU ([1]; patient E, max peptide 224 SFU): ′′′ (41-70% = ′′′) | IFN-γ ELISpot response ([1]; patient F, 11-17 yrs, cut-off 10 SFU): 107 SFU | Significant response as percentage of maximal peptide SFU ([1]; patient F, max peptide 178 SFU): ′′′′ | IFN-γ ELISpot response ([1]; patient G, 11-17 yrs, cut-off 10 SFU): 7 SFU | IFN-γ ELISpot response ([1]; patient H (HLA-DQ2.5 homozygote), 3-5yrs, cut-off 10 SFU): 41 SFU | IFN-γ ELISpot response ([1]; patient H, 11-17 yrs, cut-off 10 SFU): 16 SFU | Significant response as percentage of maximal peptide SFU ([1]; patient H, max peptide 17 SFU): + (>70% = +) | IFN-γ ELISpot response ([1]; patient ID not given, 11-17 yrs, cut-off 10 SFU): 59 SFU | Significant response as percentage of maximal peptide SFU ([1]; patient ID not given, max peptide 95 SFU): ′′′ (41-70% = ′′′) | Significant response as percentage of maximal peptide SFU ([1]; patient II, max peptide 15 SFU): + (>70% = +) | Significant response as percentage of maximal peptide SFU ([1]; patient J, max peptide 196 SFU): ′′′ (41-70% = ′′′) | Significant response as percentage of maximal peptide SFU ([1]; patient K, max peptide 53 SFU): ′′ (21-40% = ′′) | Significant response as percentage of maximal peptide SFU ([1]; patient M, max peptide 48 SFU): + (>70% = +) | IFN-γ ELISpot response ([1]; patient N, 3-5yrs, cut-off 10 SFU): 4 SFU | IFN-γ ELISpot response ([1]; patient P, 11-17 yrs, cut-off 21.6 SFU): 33 SFU | Significant response as percentage of maximal peptide SFU ([1]; patient P, max peptide 64 SFU): ′′′ (41-70% = ′′′) | IFN-γ ELISpot response ([1]; patient Q, 11-17 yrs, cut-off 10 SFU): 65 SFU | Significant response as percentage of maximal peptide SFU ([1]; patient Q, max peptide 97 SFU): ′′′ (41-70% = ′′′) | IFN-γ ELISpot response ([1]; patient U, H, 11-17 yrs, cut-off 10 SFU): 54 SFU | Significant response as percentage of maximal peptide SFU ([1]; patient U, max peptide 81 SFU): ′′′′ | IFN-γ ELISpot response ([1]; patient V, 6-10 yrs, cut-off 10 SFU): 22 SFU | Significant response as percentage of maximal peptide SFU ([1]; patient V, max peptide 35 SFU): ′′′ (41-70% = ′′′) | IFN-γ ELISpot response ([1]; patient Y, 6-10 yrs, cut-off 10 SFU): 6 SFU | Significant response as percentage of maximal peptide SFU ([1]; patient Z, max peptide 13 SFU): ′′ (21-40% = ′′) | IFN-γ ELISpot response ([1]; patient eleven, 6-10 yrs, cut-off 10 SFU): 43 SFU | Significant response as percentage of maximal peptide SFU ([1]; patient eleven, max peptide 57 SFU): + (>70% = +) | Significant response as percentage of maximal peptide SFU ([1]; patient five, max peptide 48 SFU): ′′ (21-40% = ′′) | IFN-γ ELISpot response ([1]; patient seven, 6-10 yrs, cut-off 10.5 SFU): 15 SFU | Significant response as percentage of maximal peptide SFU ([1]; patient seven, max peptide 27 SFU): ′′′ (41-70% = ′′′) | IFN-γ ELISpot response ([1]; patient six, 3-5yrs, cut-off 10 SFU): 12 SFU | Significant response as percentage of maximal peptide SFU ([1]; patient six, max peptide 13 SFU): + (>70% = +) | IFN-γ ELISpot response ([1]; patient ten, 3-5yrs, cut-off 10 SFU): 10 SFU | Significant response as percentage of maximal peptide SFU ([1]; patient ten, max peptide 14.5 SFU): + (>70% = +) | IFN-γ ELISpot response ([1]; patient three, 6-10 yrs, cut-off 10.5 SFU): 112 SFU | IFN-γ ELISpot response ([1]; patient twelve, 11-17 yrs, cut-off 10 SFU): 13 SFU | IFN-γ ELISpot response ([1]; patient two, 3-5yrs, cut-off 10 SFU): 26 SFU | Significant response as percentage of maximal peptide SFU ([1]; patient two, max peptide 60 SFU): ′′′ (41-70% = ′′′) | Dominance scores 18+ yrs [2]: 15

LQPFPQPELPYPQP [Peptide W02, contains DQ2.5-glia-a1a and a2]
magnitude of T cell responses, HLA-DQ2.5 homozygous vs heterozygous [1]: significantly greater | EC50 compared between age groups ([1]; 17 children (3-5, 6-10, 11-18 yrs) and four adults, dose curve 0.1-50 ug/ml): a difference was observed between 3-5 yrs and 6-10 yrs | Dominance score 3-5yrs (n = 9) [1]: 74.8 | Dominance score 6-10yrs (n = 10) [1]: 56.9 | Dominance score 11-18yrs (n = 11) [1]: 59.6 | Dominance score Mean all ages [1]: 63.3 | dominance hierarchy across all age groupings ([1]; Example 5): most dominant three peptides | dominance hierarchy across all age groups [1]: most dominant four peptides | response to native vs deamidated form ([1]; all age groups): Deamidation enhanced the response | Dominance scores 3-5 yrs [1]: 77 | Dominance scores 6-10 yrs [1]: 57 | Dominance scores 11-18 yrs [1]: 60 | Dominance scores Mean all ages [1]: 64 | IFN-γ ELISpot responses Day 0 prior to vs Day 6 after wheat challenge ([1]; p<0.05, Kruskal Wallis): Significant gluten-specific responses were observed on Day 6 only | Dominance scores 18+ yrs [2]: 58
